From patent US9012635B2, “Pyridone amides and analogs exhibiting anti-cancer and anti-proliferative activities” (Deciphera Pharmaceuticals, LLC, priority 2013, dated 2015)
Structures can show the parent of a compound that is named as a salt.

Key:
[1] = molecular target: T1, c-MET kinase (Seq. ID No. 2) (Homo sapiens, UniProt P08581); experiment: c-MET kinase assay (pyruvate kinase/lactate dehydrogenase coupled, A340); type: biochemical; conditions: enzymatic assay, 0.5 h pre-incubation, ATP 100 μM; read-out: cMET
T1 construct: c-MET (c-MET residues: 956-1390, from Invitrogen, catalogue #PV3143, 6 nM); purchased Invitrogen PV3143
T1 sequence (P08581 with tags, fused parts or gaps): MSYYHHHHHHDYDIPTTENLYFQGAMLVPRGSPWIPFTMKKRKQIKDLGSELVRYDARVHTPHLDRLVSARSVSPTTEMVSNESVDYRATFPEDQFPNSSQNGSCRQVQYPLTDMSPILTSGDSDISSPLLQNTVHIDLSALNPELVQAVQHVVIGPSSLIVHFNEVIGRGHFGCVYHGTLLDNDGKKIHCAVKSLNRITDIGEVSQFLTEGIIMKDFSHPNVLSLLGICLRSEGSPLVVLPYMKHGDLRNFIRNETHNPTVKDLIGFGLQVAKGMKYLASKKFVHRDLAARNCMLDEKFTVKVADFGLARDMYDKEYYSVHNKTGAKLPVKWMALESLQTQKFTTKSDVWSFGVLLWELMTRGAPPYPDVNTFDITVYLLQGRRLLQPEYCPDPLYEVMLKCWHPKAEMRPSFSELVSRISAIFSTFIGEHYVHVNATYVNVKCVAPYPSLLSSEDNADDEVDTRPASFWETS
Experimental: Activity of c-MET kinase (Seq. ID No. 2) was determined by following the production of ADP from the kinase reaction through coupling with the pyruvate kinase/lactate dehydrogenase system (e.g., Schindler et al. Science 2000, 289, pp. 1938-1942). In this assay, the oxidation of NADH (thus the decrease at A340 nm) was continuously monitored spectrophotometrically. The reaction mixture (100 μl) contained c-MET (c-MET residues: 956-1390, from Invitrogen, catalogue #PV3143, 6 nM), polyE4Y (1 mg/mL), MgCl2 (10 mM), pyruvate kinase (4 units), lactate dehydrogenase (0.7 units), phosphoenol pyruvate (1 mM), and NADH (0.28 mM) in 90 mM Tris buffer containing 0.25 mM DTT, 0.2% octyl-glucoside and 1% DMSO, pH 7.5. Test compounds were incubated with c-MET (Seq. ID No. 2) and other reaction reagents at 22° C. for 0.5 h before ATP (100 μM) was added to start the reaction. The absorption at 340 nm was monitored continuously for 2 hours at 30° C. on Polarstar Optima plate reader (BMG). The reaction rate was calculated using the 1.0 to 2.0 h time frame. Percent inhibition was obtained by comparison of reaction rate with that of a control (i.e., with no test compound). IC50 values were calculated from a series of percent inhibition values determined at a range of inhibitor concentrations using software routines as implemented in the GraphPad Prism software package.

[2] = molecular target: T2, c-KIT kinase (Seq. ID No. 1) (Homo sapiens, UniProt P10721); experiment: c-KIT kinase assay (pyruvate kinase/lactate dehydrogenase coupled, A340); type: biochemical; conditions: enzymatic assay, ATP 200 μM; read-out: cKIT
T2 construct: c-KIT (cKIT residues T544-V976, from ProQinase, 5.4 nM); purchased ProQinase
T2 sequence (P10721 with tags, fused parts or gaps): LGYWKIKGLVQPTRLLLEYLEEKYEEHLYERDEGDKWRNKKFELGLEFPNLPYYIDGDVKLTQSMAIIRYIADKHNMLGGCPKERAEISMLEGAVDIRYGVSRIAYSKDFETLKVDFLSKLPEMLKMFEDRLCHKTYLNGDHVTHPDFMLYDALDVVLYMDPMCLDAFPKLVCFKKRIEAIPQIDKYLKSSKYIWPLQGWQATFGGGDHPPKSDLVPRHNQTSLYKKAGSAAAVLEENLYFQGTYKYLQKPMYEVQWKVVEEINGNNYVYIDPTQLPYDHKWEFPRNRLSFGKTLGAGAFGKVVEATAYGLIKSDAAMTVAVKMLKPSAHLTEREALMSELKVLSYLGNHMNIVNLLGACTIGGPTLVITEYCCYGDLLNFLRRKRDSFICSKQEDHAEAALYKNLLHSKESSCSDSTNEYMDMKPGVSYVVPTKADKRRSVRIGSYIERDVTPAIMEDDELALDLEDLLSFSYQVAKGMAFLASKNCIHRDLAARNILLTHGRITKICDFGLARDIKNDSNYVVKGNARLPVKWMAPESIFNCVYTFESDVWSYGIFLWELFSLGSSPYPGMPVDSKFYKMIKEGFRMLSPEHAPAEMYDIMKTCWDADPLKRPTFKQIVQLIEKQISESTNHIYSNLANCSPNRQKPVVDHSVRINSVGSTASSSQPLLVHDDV
Experimental: Activity of c-KIT kinase (Seq. ID No. 1) was determined by following the production of ADP from the kinase reaction through coupling with the pyruvate kinase/lactate dehydrogenase system (e.g., Schindler et al. Science 2000, 289, pp. 1938-1942). In this assay, the oxidation of NADH (thus the decrease at A340 nm) was continuously monitored spectrophotometrically. The reaction mixture (100 μl) contained c-KIT (cKIT residues T544-V976, from ProQinase, 5.4 nM), polyE4Y (1 mg/mL), MgCl2 (10 mM), pyruvate kinase (4 units), lactate dehydrogenase (0.7 units), phosphoenol pyruvate (1 mM), and NADH (0.28 mM) in 90 mM Tris buffer containing 0.2% octyl-glucoside and 1% DMSO, pH 7.5. Test compounds were incubated with c-KIT (Seq. ID No. 1) and other reaction reagents at 22° C. for less than 2 min before ATP (200 μM) was added to start the reaction. The absorption at 340 nm was monitored continuously for 0.5 hours at 30° C. on Polarstar Optima plate reader (BMG). The reaction rate was calculated using the 0 to 0.5 h time frame. Percent inhibition was obtained by comparison of reaction rate with that of a control (i.e., with no test compound). IC50 values were calculated from a series of percent inhibition values determined at a range of inhibitor concentrations using software routines as implemented in the GraphPad Prism software package.

[3] = molecular target: KDR kinase (Seq ID No. 3) (Homo sapiens, UniProt P35968, DEL940-989/E990V); experiment: KDR kinase assay (assays K1, K2, K3); type: biochemical; conditions: enzymatic assay; variant K1, K2 or K3 not given
Sequence of KDR kinase (Seq ID No. 3) (P35968 with tags, fused parts or gaps DEL940-989/E990V): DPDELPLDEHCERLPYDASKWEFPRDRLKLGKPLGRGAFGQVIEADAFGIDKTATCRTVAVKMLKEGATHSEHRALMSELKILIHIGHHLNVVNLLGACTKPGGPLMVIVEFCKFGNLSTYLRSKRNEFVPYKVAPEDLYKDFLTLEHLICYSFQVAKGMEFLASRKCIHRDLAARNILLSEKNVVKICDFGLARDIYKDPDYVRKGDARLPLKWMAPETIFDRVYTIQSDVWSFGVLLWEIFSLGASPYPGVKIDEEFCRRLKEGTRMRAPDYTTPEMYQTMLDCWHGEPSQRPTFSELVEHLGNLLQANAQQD
Experimental: The activity of KDR kinase was determined by following the production of ADP from the kinase reaction through coupling with the pyruvate kinase/lactate dehydrogenase system (e.g., Schindler et al. Science 2000, 289, pp. 1938-1942). In this assay, the oxidation of NADH (thus the decrease at A340 nm) was continuously monitored spectrophotometrically. The reaction mixture (100 μl) contained KDR (Seq ID No. 3, 1.5 nM to 7.1 nM, nominal concentration), polyE4Y (1 mg/mL), pyruvate kinase (3.5 units), lactate dehydrogenase (5.5 units), phosphoenolpyruvate (1 mM), and NADH (0.28 mM) in 60 mM Tris buffer containing 0.13% octyl-glucoside, 13 mM MgCl2, 6.8 mM DTT, test compound, and 3.5% DMSO at pH 7.5. The reaction was initiated by adding ATP (0.2 mM, final concentration). The absorption at 340 nm was continuously monitored for 3 h at 30° C. on a Polarstar Optima plate reader (BMG) or instrument of similar capacity. The reaction rate was calculated using the 1 h to 2 h time frame. Percent inhibition was obtained by comparison of reaction rate with that of a control (i.e., with no test compound). IC50 values were calculated from a series of percent inhibition values determined at a range of inhibitor concentrations using software routines as implemented in the GraphPad Prism software package.
KDR kinase assay K2 is the same as for assay K1 except that (1) a nominal concentration of 2.1 nM of enzyme was employed (2) the reaction was pre-incubated with test compound at 30° C. for 2 h prior to initiation with ATP and (3) 1.0 mM ATP (final concentration) was used to initiate the reaction.
KDR kinase assay K3 is the same as for assay K1 except that (1) a nominal concentration of 1.1 nM of enzyme was employed, (2) the buffer components per 100 μl reaction mixture were as follows: 75 mM Tris buffer containing 0.066% octyl-glucoside, 17 mM MgCl2, and 1% DMSO at pH 7.5, (3) the final concentration of DTT was 0.66 mM, (4) the reaction was pre-incubated with test compound at 30° C. for 1 h prior to initiation with ATP, and (5) 1.0 mM ATP (final concentration) was used to initiate the reaction.

EBC-1 cells = experiment: EBC-1 cell proliferation assay (resazurin); type: cell-based; conditions: Homo sapiens, 67 h + 5 h resazurin, read-out: EBC1 Proliferation
Experimental: (§1) EBC-1 cells (catalog #JCRB0820) were obtained from the Japan Health Science Research Resources Bank, Osaka, Japan. Briefly, cells were grown in DMEM supplemented with 10% characterized fetal bovine serum (Invitrogen, Carlsbad, Calif.) at 37° C., 5% CO2, 95% humidity. Cells were allowed to expand until reaching 70-95% confluency at which point they were subcultured or harvested for assay use.
(§2) A serial dilution of test compound was dispensed into a 96-well black clear bottom plate (Corning, Corning, N.Y.). For each cell line, five thousand cells were added per well in 200 μL complete growth medium. Plates were incubated for 67 hours at 37° C., 5% CO2, 95% humidity. At the end of the incubation period 40 μL of a 440 μM solution of resazurin (Sigma, St. Louis, Mo.) in PBS was added to each well and incubated for an additional 5 hours at 37° C., 5% CO2, 95% humidity. Plates were read on a Synergy2 reader (Biotek, Winooski, Vt.) using an excitation of 540 nm and an emission of 600 nm. Data was analyzed using Prism software (GraphPad, San Diego, Calif.) to calculate IC50 values.

MKN-45 cells = experiment: MKN-45 cell proliferation assay (resazurin); type: cell-based; conditions: Homo sapiens, 67 h + 5 h resazurin
Experimental: as §1, with “MKN-45” for “EBC-1”, “#JCRB0254)” for “#JCRB0820)”, “RPMI 1640 media” for “DMEM”
as §2, with “Corning, N.Y.). Five thousand cells” for “Corning, N.Y.). For each cell line, five thousand cells”, “well and plates were incubated for” for “well and incubated for”, “additional 5 h at 37°” for “additional 5 hours at 37°”

Compound | IC50 [1] [nM] | IC50 [2] [nM] | IC50 [3] [nM] | IC50 (EBC-1 cells) [nM] | IC50 (MKN-45 cells) [nM]
CNc1ccn(-c2ccc(F)cc2)c(=O)c1C(=O)Nc1cc(F)c(Oc2ccnc(-c3cnn(C)c3)c2)cc1F [Example 4, N-(2,5-difluoro-4-((2-(1-methyl-1H-pyrazol-4-yl)pyridin-4-yl)oxy)phenyl)-1-(4-fluorophenyl)-4-(methylamino)-2-oxo-1,2-dihydropyridine-3-carboxamide] | ≤ 100 | 100 to 1000 | > 1000 | 100 to 1000 | > 1000
CCOc1ccn(-c2ccc(F)cc2)c(=O)c1C(=O)Nc1cc(F)c(Oc2ccnc(-c3cnn(C(C)C)c3)c2)cc1F [Example 6, N-(2,5-difluoro-4-((2-(1-isopropyl-1H-pyrazol-4-yl)pyridin-4-yl)oxy)phenyl)-4-ethoxy-1-(4-fluorophenyl)-2-oxo-1,2-dihydropyridine-3-carboxamide] | ≤ 100 | > 1000 | > 1000 | 100 to 1000 | 100 to 1000
CCOc1ccn(-c2ccc(F)cc2)c(=O)c1C(=O)Nc1cc(F)c(Oc2ccnc(-c3cnn(CC)c3)c2)cc1F [Example 7, 4-ethoxy-N-(4-((2-(1-ethyl-1H-pyrazol-4-yl)pyridin-4-yl)oxy)-2,5-difluorophenyl)-1-(4-fluorophenyl)-2-oxo-1,2-dihydropyridine-3-carboxamide] | ≤ 100 | > 1000 | > 1000 | ≤ 100 | ≤ 100
CCOc1ccn(-c2ccc(F)cc2)c(=O)c1C(=O)Nc1cc(F)c(Oc2ccnc(-c3cn[nH]c3)c2)cc1F [Example 8, N-(4-((2-(1H-pyrazol-4-yl)pyridin-4-yl)oxy)-2,5-difluorophenyl)-4-ethoxy-1-(4-fluorophenyl)-2-oxo-1,2-dihydropyridine-3-carboxamide hydrochloride] | ≤ 100 | > 1000 | > 1000 | 100 to 1000 | 100 to 1000
Cn1cc(C(=O)Nc2cc(F)c(Oc3ccnc(-c4cnn(C)c4)c3)cc2F)c(=O)c(-c2ccc(F)cc2)c1 [Example 9, N-(2,5-difluoro-4-((2-(1-methyl-1H-pyrazol-4-yl)pyridin-4-yl)oxy)phenyl)-5-(4-fluorophenyl)-1-methyl-4-oxo-1,4-dihydropyridine-3-carboxamide] | ≤ 100 | ≤ 100 | > 1000 |  | 
Cn1cc(-c2cc(Oc3cc(F)c(NC(=O)c4c[nH]cc(-c5ccc(F)cc5)c4=O)cc3F)ccn2)cn1 [Example 10, N-(2,5-difluoro-4-((2-(1-methyl-1H-pyrazol-4-yl)pyridin-4-yl)oxy)phenyl)-5-(4-fluorophenyl)-4-oxo-1,4-dihydropyridine-3-carboxamide] | ≤ 100 | ≤ 100 | 100 to 1000 |  | 
